Source: US8278345B2, “Inhibitors of glutaminyl cyclase” (Probiodrug AG, priority 2006, dated 2012)

molecular target: hQC (Homo sapiens, UniProt Q16769); assay: Inhibitor assay for glutaminyl cyclase activity (fluorometric, H-Gln-βNA / H-Gln-AMC); assay type: biochemical; details: compound from preparative synthesis, purified; read-out: IC50 hQC
In short: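 Ki values came from fitting progress curves to a competitive inhibition model; rapid screens used 4 mM inhibitor with substrate at KM. QC activity was read at 30 °C via auxiliary pyroglutamyl aminopeptidase releasing βNA (0.2 mM H-Gln-βNA, 0.2 M Tris pH 8.0, 20 mM EDTA) or AMC (0.05 M Tris pH 8.0, 5 mM EDTA).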

Chain of hQC (Q16769 29-361): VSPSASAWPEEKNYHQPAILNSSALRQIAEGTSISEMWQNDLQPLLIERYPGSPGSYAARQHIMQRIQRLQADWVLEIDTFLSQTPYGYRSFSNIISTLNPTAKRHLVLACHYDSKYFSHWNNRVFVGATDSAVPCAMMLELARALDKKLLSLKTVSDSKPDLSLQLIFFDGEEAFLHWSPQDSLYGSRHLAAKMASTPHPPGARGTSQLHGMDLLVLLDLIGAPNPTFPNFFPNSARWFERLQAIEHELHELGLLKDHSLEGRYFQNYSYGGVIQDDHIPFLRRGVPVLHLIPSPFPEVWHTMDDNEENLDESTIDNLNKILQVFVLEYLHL

| IC50 [nM] | Structure (SMILES) |
| --- | --- |
| 370 | O=C1C(O)=C(c2ccc(O)cc2)C(c2ccc3[nH]ccc3c2)N1CCCn1ccnc1 (stereo not drawn) [Compound 155, 3-Hydroxy-4-(4-hydroxy-phenyl)-1-(3-imidazol-1-yl-propyl)-5-(1H-indol-5-yl)-1,5-dihydro-pyrrol-2-one] |
| 88 | COc1ccc(C2C(c3ccc(O)cc3)=C(O)C(=O)N2CCCn2ccnc2)cc1 (stereo not drawn) [Compound 156, 3-Hydroxy-4-(4-hydroxy-phenyl)-1-(3-imidazol-1-yl-propyl)-5-(4-methoxy-phenyl)-1,5-dihydro-pyrrol-2-one] |
| 214 | Cc1ccc(C2C(c3ccc(O)cc3)=C(O)C(=O)N2CCCn2ccnc2)cc1C (stereo not drawn) [Compound 158, 5-(3,4-Dimethyl-phenyl)-3-hydroxy-4-(4-hydroxy-phenyl)-1-(3-imidazol-1-yl-propyl)-1,5-dihydro-pyrrol-2-one] |
| 559 | O=C1C(O)=C(c2ccc(O)cc2)C(C2CCC=CO2)N1CCCn1ccnc1 (stereo not drawn) [Compound 163, 5-(3,4-Dihydro-2H-pyran-2-yl)-3-hydroxy-4-(4-hydroxy-phenyl)-1-(3-imidazol-1-yl-propyl)-1,5-dihydro-pyrrol-2-one] |
| 344 | O=C1C(O)=C(c2ccc(O)cc2)C(c2ccccc2F)N1CCCn1ccnc1 (stereo not drawn) [Compound 180, 5-(2-Fluoro-phenyl)-3-hydroxy-4-(4-hydroxy-phenyl)-1-(3-imidazol-1-yl-propyl)-1,5-dihydro-pyrrol-2-one] |

same assay, conditions: read-out: IC50

| Structure (SMILES) | IC50 [nM] |
| --- | --- |
| CCCCCC1C(c2ccc(O)cc2)=C(O)C(=O)N1CCCn1ccnc1 (stereo not drawn) [Compound 159, 3-Hydroxy-4-(4-hydroxy-phenyl)-1-(3-imidazol-1-yl-propyl)-5-pentyl-1,5-dihydro-pyrrol-2-one] | 40 |
| CC1C(c2ccc(O)cc2)=C(O)C(=O)N1CCCn1ccnc1 (stereo not drawn) [Compound 160, 3-Hydroxy-4-(4-hydroxy-phenyl)-1-(3-imidazol-1-yl-propyl)-5-methyl-1,5-dihydro-pyrrol-2-one] | 400 |
| O=C1C(O)=C(c2ccc(O)cc2)C(c2ccc(CO)o2)N1CCCn1ccnc1 (stereo not drawn) [Compound 161, 3-Hydroxy-5-(5-hydroxymethyl-furan-2-yl)-4-(4-hydroxy-phenyl)-1-(3-imidazol-1-yl-propyl)-1,5-dihydro-pyrrol-2-one] | 400 |
| O=C1C(O)=C(c2ccc(O)cc2)C(C2CCC=CO2)N1CCCn1ccnc1 (stereo not drawn) [Compound 163, 5-(3,4-Dihydro-2H-pyran-2-yl)-3-hydroxy-4-(4-hydroxy-phenyl)-1-(3-imidazol-1-yl-propyl)-1,5-dihydro-pyrrol-2-one] | 40 |
| O=C1C(O)=C(c2ccc(O)cc2)C(C2=CCCCC2)N1CCCn1ccnc1 (stereo not drawn) [Compound 164, 5-Cyclohex-1-enyl-3-hydroxy-4-(4-hydroxy-phenyl)-1-(3-imidazol-1-yl-propyl)-1,5-dihydro-pyrrol-2-one] | 1300 |
| O=C1C(O)=C(c2ccc(O)cc2)C(C(F)(F)F)N1CCCn1ccnc1 (stereo not drawn) [Compound 166, 3-Hydroxy-4-(4-hydroxy-phenyl)-1-(3-imidazol-1-yl-propyl)-5-trifluoromethyl-1,5-dihydro-pyrrol-2-one] | 400 |
| O=C1C(O)=C(c2ccc(O)cc2)C(Cc2ccccc2)N1CCCn1ccnc1 (stereo not drawn) [Compound 169, 5-Benzyl-3-hydroxy-4-(4-hydroxy-phenyl)-1-(3-imidazol-1-yl-propyl)-1,5-dihydro-pyrrol-2-one] | 40 |
| O=C1C(O)=C(c2ccc(O)cc2)C(CO)N1CCCn1ccnc1 (stereo not drawn) [Compound 174, 3-Hydroxy-5-hydroxymethyl-4-(4-hydroxy-phenyl)-1-(3-imidazol-1-yl-propyl)-1,5-dihydro-pyrrol-2-one] | 400 |
| O=C1C(O)=C(c2ccc(O)cc2)C(C2CC2)N1CCCn1ccnc1 (stereo not drawn) [Compound 175, 5-Cyclopropyl-3-hydroxy-4-(4-hydroxy-phenyl)-1-(3-imidazol-1-yl-propyl)-1,5-dihydro-pyrrol-2-one] | 40 |
| CCCCC1C(c2ccc(O)cc2)=C(O)C(=O)N1CCCn1ccnc1 (stereo not drawn) [Compound 177, 5-Butyl-3-hydroxy-4-(4-hydroxy-phenyl)-1-(3-imidazol-1-yl-propyl)-1,5-dihydro-pyrrol-2-one] | 40 |
| CCC1C(c2ccc(O)cc2)=C(O)C(=O)N1CCCn1ccnc1 (stereo not drawn) [Compound 178, 5-Ethyl-3-hydroxy-4-(4-hydroxy-phenyl)-1-(3-imidazol-1-yl-propyl)-1,5-dihydro-pyrrol-2-one] | 400 |
| CCCCCC1=C(O)C(=O)N(CCCn2ccnc2)C1c1cc(Cl)cc(Cl)c1O (stereo not drawn) [Compound 183, 5-(3,5-Dichloro-2-hydroxy-phenyl)-3-hydroxy-1-(3-imidazol-1-yl-propyl)-4-pentyl-1,5-dihydro-pyrrol-2-one] | 40 |
| CCCCCC1=C(O)C(=O)N(CCCn2ccnc2)C1c1ccc(C)cc1 (stereo not drawn) [Compound 184, 3-Hydroxy-1-(3-imidazol-1-yl-propyl)-4-pentyl-5-p-tolyl-1,5-dihydro-pyrrol-2-one] | 40 |
| CCC/C=C/C1C(CCCCC)=C(O)C(=O)N1CCCn1ccnc1 (stereo not drawn) [Compound 185, 3-Hydroxy-1-(3-imidazol-1-yl-propyl)-5-(pent-1-enyl)-4-pentyl-1,5-dihydro-pyrrol-2-one] | 1300 |
| CCCCCC1=C(O)C(=O)N(CCCn2ccnc2)C1C(C)CC (stereo not drawn) [Compound 186, 5-sec-Butyl-3-hydroxy-1-(3-imidazol-1-yl-propyl)-4-pentyl-1,5-dihydro-pyrrol-2-one] | 400 |
| CCCCCC1=C(O)C(=O)N(CCCn2ccnc2)C1CCC (stereo not drawn) [Compound 187, 3-Hydroxy-1-(3-imidazol-1-yl-propyl)-4-pentyl-5-propyl-1,5-dihydro-pyrrol-2-one] | 40 |
| CCCCCC1=C(O)C(=O)N(CCCn2ccnc2)C1c1cc[nH]n1 (stereo not drawn) [Compound 188, 3-Hydroxy-1-(3-imidazol-1-yl-propyl)-4-pentyl-5-(1H-pyrazol-3-yl)-1,5-dihydro-pyrrol-2-one] | 400 |
| CCCCCC1=C(O)C(=O)N(CCCn2ccnc2)C1C(O)CO (stereo not drawn) [Compound 189, 5-(1,2-Dihydroxy-ethyl)-3-hydroxy-1-(3-imidazol-1-yl-propyl)-4-pentyl-1,5-dihydro-pyrrol-2-one] | 400 |
| CCCCCC1=C(O)C(=O)N(CCCn2ccnc2)C1/C=C/C(C)C (stereo not drawn) [Compound 190, 3-Hydroxy-1-(3-imidazol-1-yl-propyl)-5-(3-methyl-but-1-enyl)-4-pentyl-1,5-dihydro-pyrrol-2-one] | 400 |

The next lines start with the values.

| IC50 [nM] | Structure (SMILES) |
| --- | --- |
| 40 | Cc1ccc(C2C(c3ccc(O)cc3)=C(O)C(=O)N2CCCn2ccnc2)o1 (stereo not drawn) [Compound 154, 3-Hydroxy-4-(4-hydroxy-phenyl)-1-(3-imidazol-1-yl-propyl)-5-(5-methyl-furan-2-yl)-1,5-dihydro-pyrrol-2-one] |
| 40 | O=C1C(O)=C(c2ccc(O)cc2)C(c2ccc3[nH]ccc3c2)N1CCCn1ccnc1 (stereo not drawn) [Compound 155, 3-Hydroxy-4-(4-hydroxy-phenyl)-1-(3-imidazol-1-yl-propyl)-5-(1H-indol-5-yl)-1,5-dihydro-pyrrol-2-one] |
| 40 | COc1ccc(C2C(c3ccc(O)cc3)=C(O)C(=O)N2CCCn2ccnc2)cc1 (stereo not drawn) [Compound 156, 3-Hydroxy-4-(4-hydroxy-phenyl)-1-(3-imidazol-1-yl-propyl)-5-(4-methoxy-phenyl)-1,5-dihydro-pyrrol-2-one] |
| 40 | O=C1C(O)=C(c2ccc(O)cc2)C(c2ccccc2O)N1CCCn1ccnc1 (stereo not drawn) [Compound 157, 3-Hydroxy-5-(2-hydroxy-phenyl)-4-(4-hydroxy-phenyl)-1-(3-imidazol-1-yl-propyl)-1,5-dihydro-pyrrol-2-one] |
| 40 | Cc1ccc(C2C(c3ccc(O)cc3)=C(O)C(=O)N2CCCn2ccnc2)cc1C (stereo not drawn) [Compound 158, 5-(3,4-Dimethyl-phenyl)-3-hydroxy-4-(4-hydroxy-phenyl)-1-(3-imidazol-1-yl-propyl)-1,5-dihydro-pyrrol-2-one] |
| 40 | O=C1C(O)=C(c2ccc(O)cc2)C(c2ccccc2)N1CCCn1ccnc1 (stereo not drawn) [Compound 162, 3-Hydroxy-4-(4-hydroxy-phenyl)-1-(3-imidazol-1-yl-propyl)-5-phenyl-1,5-dihydro-pyrrol-2-one] |
| 40 | Cc1ccc2c(C3C(c4ccc(O)cc4)=C(O)C(=O)N3CCCn3ccnc3)c[nH]c2c1 (stereo not drawn) [Compound 165, 3-Hydroxy-4-(4-hydroxy-phenyl)-1-(3-imidazol-1-yl-propyl)-5-(6-methyl-1H-indol-3-yl)-1,5-dihydro-pyrrol-2-one] |
| 40 | O=C1C(O)=C(c2ccc(O)cc2)C(c2c[nH]c3ccccc23)N1CCCn1ccnc1 (stereo not drawn) [Compound 167, 3-Hydroxy-4-(4-hydroxy-phenyl)-1-(3-imidazol-1-yl-propyl)-5-(1H-indol-3-yl)-1,5-dihydro-pyrrol-2-one] |
| 2200 | O=C1C(O)=C(c2ccc(O)cc2)C(c2ncc[nH]2)N1CCCn1ccnc1 (stereo not drawn) [Compound 168, 3-Hydroxy-4-(4-hydroxy-phenyl)-5-(1H-imidazol-2-yl)-1-(3-imidazol-1-yl-propyl)-1,5-dihydro-pyrrol-2-one] |
| 1300 | O=C1C(O)=C(c2ccc(O)cc2)C(c2c(O)ccc3ccccc23)N1CCCn1ccnc1 (stereo not drawn) [Compound 170, 3-Hydroxy-5-(2-hydroxy-naphthalen-1-yl)-4-(4-hydroxy-phenyl)-1-(3-imidazol-1-yl-propyl)-1,5-dihydro-pyrrol-2-one] |
| 400 | O=C1C(O)=C(c2ccc(O)cc2)C(c2ccccn2)N1CCCn1ccnc1 (stereo not drawn) [Compound 171, 3-Hydroxy-4-(4-hydroxy-phenyl)-1-(3-imidazol-1-yl-propyl)-5-pyridin-2-yl-1,5-dihydro-pyrrol-2-one] |
| 7600 | O=C1C(O)=C(c2ccc(O)cc2)C(c2ccncc2)N1CCCn1ccnc1 (stereo not drawn) [Compound 172, 3-Hydroxy-4-(4-hydroxy-phenyl)-1-(3-imidazol-1-yl-propyl)-5-pyridin-4-yl-1,5-dihydro-pyrrol-2-one] |
| 40 | O=C1C(O)=C(c2ccc(O)cc2)C(c2cccs2)N1CCCn1ccnc1 (stereo not drawn) [Compound 173, 3-Hydroxy-4-(4-hydroxy-phenyl)-1-(3-imidazol-1-yl-propyl)-5-thiophen-2-yl-1,5-dihydro-pyrrol-2-one] |
| 40 | O=C1C(O)=C(c2ccc(O)cc2)C(c2ccco2)N1CCCn1ccnc1 (stereo not drawn) [Compound 176, 5-Furan-2-yl-3-hydroxy-4-(4-hydroxy-phenyl)-1-(3-imidazol-1-yl-propyl)-1,5-dihydro-pyrrol-2-one] |
| 40 | O=C1C(O)=C(c2ccc(O)cc2)C(c2cccc(Cl)c2)N1CCCn1ccnc1 (stereo not drawn) [Compound 179, 5-(3-Chloro-phenyl)-3-hydroxy-4-(4-hydroxy-phenyl)-1-(3-imidazol-1-yl-propyl)-1,5-dihydro-pyrrol-2-one] |
| 40 | O=C1C(O)=C(c2ccc(O)cc2)C(c2ccccc2F)N1CCCn1ccnc1 (stereo not drawn) [Compound 180, 5-(2-Fluoro-phenyl)-3-hydroxy-4-(4-hydroxy-phenyl)-1-(3-imidazol-1-yl-propyl)-1,5-dihydro-pyrrol-2-one] |
| 40 | O=C1C(O)=C(c2ccc(O)cc2)C(c2ccc(O)cc2)N1CCCn1ccnc1 (stereo not drawn) [Compound 181, 3-Hydroxy-4,5-bis-(4-hydroxy-phenyl)-1-(3-imidazol-1-yl-propyl)-1,5-dihydro-pyrrol-2-one] |
| 40 | O=C1C(O)=C(c2ccc(O)cc2)C(c2cccc(O)c2)N1CCCn1ccnc1 (stereo not drawn) [Compound 182, 3-Hydroxy-5-(3-hydroxy-phenyl)-4-(4-hydroxy-phenyl)-1-(3-imidazol-1-yl-propyl)-1,5-dihydro-pyrrol-2-one] |
